Data published in patent US8163700B2, “Inhibitors of myelin-associated glycoprotein (MAG) activity for regulating neural growth and regeneration” (Research Foundation of City University of New York, priority 2002, dated 2012).
“Also recorded” adds a separate entry of the source.

system: cerebellar neurons; test: Neurite outgrowth on L1-Fc substrate in the presence of soluble MAG-Fc chimeras (FIG. 3); assay type: cell-based; details: soluble protein 25 μg/ml, 18 hours, compared to control chimera
Method: FIG. 3 Inhibition of neurite outgrowth from cerebellar neurons by MAG-Fc Derivatives Cerebellar neurons were isolated (Example 1) and plated onto a growth promoting substrate of L1 protein (Example 4). A control MUC-Fc fusion (clear bar), wild-type MAG-Fc (striped bar) and MAG-Fc derivatives having point mutations in MAG Ig-like domains 4 or 5 (grey bars) were constructed (Example 4) and added in soluble form to neurons (25 μg/ml). After 18 hours, cultures were fixed and stained for GAP-43 antigen. Neurite length was measured and the average length was calculated for 180-200 neurons (+/−SEM).
Individual wells of an eight-chamber tissue culture plastic slide (Lab-Tek, Nuc. Inc.) were incubated with 0.3 nil of 16.6 μg/ml poly-1-lysine in sterile water for at least one hour under sterile conditions. Each well was washed twice with 400 μl of a 0.1M sodium bicarbonate solution, pH 9.6, and then received 0.3 ml of 0.1M sodium bicarbonate solution, pH 9.6, containing 15 μg/ml goat anti-human IgG (Fc-specific) monoclonal antibody (Sigma). The wells were incubated for 2 hours (h) at 37° C., and washed three times with 0.4 ml of ice-cold DMEM. Each well then received 0.3 nil of DMEM containing 40 μg/ml of L1-Fc and was incubated for 2-4 h at 37° C. The welts were washed twice DMEM.
Cerebellar neurons (post-natal days 2-7) were dissociated by trypsinization as described in Example 1, except that the dissociated neurons were resuspended in 5 ml of SATO medium containing 2% dialyzed FBS. To an individual well coated with a monolayer of L1-Fc as described above, 5.0×10^4 cerebellar neurons were added, followed by addition of one of the mutant MAG-Fc or MUC18-Fc chimeric soluble protein described above at a concentration of 25 μg/ml. Neurons were cultured for 18 hours at 37° C., and then fixed and stained for GAP43 essentially as described in Example 2. Neurite length was measured for 180-200 neurons.

Molecule | inhibition of neurite outgrowth (in words)
MAG(L346D)-Fc: murine MAG-Fc with point mutation L346D, Ig domain 4 (protein, UniProt P20917 20-516, looked up, variant L346D, extracellular domain Fc fusion) extracellular domain: GHWGAWMPSTISAFEGTCVSIPCRFDFPDELRPAVVHGVWYFNSPYPKNYPPVVFKSRTQVVHESFQGRSRLLGDLGLRNCTLLLSTLSPELGGKYYFRGDLGGYNQYTFSEHSVLDIVNTPNIVVPPEVVAGTEVEVSCMVPDNCPELRPELSWLGHEGLGEPTVLGRLREDEGTWVQVSLLHFVPTREANGHRLGCQAAFPNTTLQFEGYASLDVKYPPVIVEMNSSVEAIEGSHVSLLCGADSNPPPLLTWMRDGMVLREAVAKSLYLDLEEVTPGEDGVYACLAENAYGQDNRTVELSVMYAPWKPTVNGTVVAVEGETVSIDCSTQSNPDPILTIFKEKQILATVIYESQLQLELPAVTPEDDGEYWCVAENQYGQRATAFNLSVEFAPIILLESHCAAARDTVQCLCVVKSNPEPSVAFELPSRNVTVNETEREFVYSERSGLLLTSILTIRGQAQAPPRVICTSRNLYGTQSLELPFQGAHRLMWAKIGP | inhibited neurite outgrowth as effectively as MAG-Fc
MAG(E410K)-Fc: murine MAG-Fc with point mutation E410K, Ig domain 4/5 (protein, UniProt P20917 20-516, looked up, variant E410K, extracellular domain Fc fusion) extracellular domain: GHWGAWMPSTISAFEGTCVSIPCRFDFPDELRPAVVHGVWYFNSPYPKNYPPVVFKSRTQVVHESFQGRSRLLGDLGLRNCTLLLSTLSPELGGKYYFRGDLGGYNQYTFSEHSVLDIVNTPNIVVPPEVVAGTEVEVSCMVPDNCPELRPELSWLGHEGLGEPTVLGRLREDEGTWVQVSLLHFVPTREANGHRLGCQAAFPNTTLQFEGYASLDVKYPPVIVEMNSSVEAIEGSHVSLLCGADSNPPPLLTWMRDGMVLREAVAKSLYLDLEEVTPGEDGVYACLAENAYGQDNRTVELSVMYAPWKPTVNGTVVAVEGETVSILCSTQSNPDPILTIFKEKQILATVIYESQLQLELPAVTPEDDGEYWCVAENQYGQRATAFNLSVKFAPIILLESHCAAARDTVQCLCVVKSNPEPSVAFELPSRNVTVNETEREFVYSERSGLLLTSILTIRGQAQAPPRVICTSRNLYGTQSLELPFQGAHRLMWAKIGP | inhibited neurite outgrowth as effectively as MAG-Fc

system: wild-type MAG-expressing cells; test: Neurite outgrowth on MAG-expressing cells in the presence of MAG, Nogo and OMgp peptides (Example 6); assay type: cell-based; details: tested as described in Example 5; example written in present tense
Text: Peptides corresponding to amino acid residues […] of MAG (MAG(343-371)), amino acid residues 363-397 (MAG(363-397)), amino acid residues 394-428 (MAG(394-428)), amino acid residues 422-451 (MAG(422-451)), amino acid residues 442-471 (MAG(442-471)), and amino acid residues 461-498 (MAG(461-498)) were synthesized. Peptides were obtained from SynPep Corp. (Dublin, Calif.). MAG(343-371), MAG(363-397) and MAG(394-428) correspond to amino acid residues from the Ig4 domain of MAG. MAG(422-451), MAG(442-471) and MAG(461-498) corresponds to amino acid residues from the Ig5 domain of MAG. […] Results are shown in FIG. 4 (and are represented as number of neurons with processes longer than 2-times the cell diameter). […] Results are shown in FIG. 5 (and are represented as average neurite length for 180-200 neurons).
Peptides corresponding to MAG amino acid residues 437-441 (M437), 446-455 (M446), 450-455 (M450), 466-471 (M466); and 472-477 (M472) are constructed and tested in neurite outgrowth assays as described in Example 5. (See peptides in FIG. 18).
Peptides corresponding to Nogo-66 amino acid residues 13-17 (N13), 22-31(N22-1), 22-34 (N22-2), 26-31 (N26-1); 26-34 (N26-2); 9-33 (N-9-1); 9-34 (N-9-2); 38-62 (N38); 42-47 (N42); and 48-53 (N48) are also constructed and tested in neurite outgrowth assays as described in Example 5.
Peptides corresponding to OMgp amino acid residues 206-210 (O206), 215-224 (O215), 219-224 (O219), 202-226 (O202); 231-255 (O231), 235-240 (O235) 241-246 (O241) are constructed and tested in neurite outgrowth assays as described in Example 5.

Molecule | effect on the ability of wild-type MAG-expressing cells to inhibit neurite outgrowth
O206: peptide of OMgp amino acid residues 206-210 (SEQ ID NO: 35) (IPEQS) | reduce the ability of the wild-type MAG-expressing cells to inhibit neurite outgrowth
O235: peptide of OMgp amino acid residues 235-240 (SEQ ID NO: 40) (ITYLLK) | reduce the ability of the wild-type MAG-expressing cells to inhibit neurite outgrowth
N38: peptide of Nogo-66 amino acid residues 38-62 (SEQ ID NO: 32) (SNSALGHVNSTIKELRRLFLVDDLV) | reduce the ability of wild-type MAG-expressing cells to inhibit neurite outgrowth; also recorded: reduce the ability of the wild-type MAG-expressing cells to inhibit neurite outgrowth
N-9-2: peptide of Nogo-66 amino acid residues 9-34 (LVSSSDSPPRPQPAFKYQFVREPEDE; Nogo-66; UniProt Q9NQC3 9-34, looked up, fragment) | reduce the ability of wild-type MAG-expressing cells to inhibit neurite outgrowth; also recorded: reduce the ability of the wild-type MAG-expressing cells to inhibit neurite outgrowth
O202: peptide of OMgp amino acid residues 202-226 (SEQ ID NO: 38) (KFTFIPEQSFDQLLQLQEITLHNNR) | reduce the ability of the wild-type MAG-expressing cells to inhibit neurite outgrowth
M437: peptide of MAG amino acid residues 437-441 (SEQ ID NO: 17) (NPEPS) | reduce the ability of the wild-type MAG-expressing cells to inhibit neurite outgrowth
O241: peptide of OMgp amino acid residues 241-246 (SEQ ID NO: 41) (WVMETK) | reduce the ability of the wild-type MAG-expressing cells to inhibit neurite outgrowth
M472: peptide of MAG amino acid residues 472-477 (SEQ ID NO: 22) (SILTLR) | reduce the ability of the wild-type MAG-expressing cells to inhibit neurite outgrowth
M450: peptide of MAG amino acid residues 450-455 (SEQ ID NO: 19) (NVTVNE) | reduce the ability of the wild-type MAG-expressing cells to inhibit neurite outgrowth
O215: peptide of OMgp amino acid residues 215-224 (SEQ ID NO: 36) (LQLQEITLHN) | reduce the ability of the wild-type MAG-expressing cells to inhibit neurite outgrowth
O219: peptide of OMgp amino acid residues 219-224 (SEQ ID NO: 37) (EITLHN) | reduce the ability of the wild-type MAG-expressing cells to inhibit neurite outgrowth
N-9-1: peptide of Nogo-66 amino acid residues 9-33 (LVSSSDSPPRPQPAFKYQFVREPED; Nogo-66; UniProt Q9NQC3 9-33, looked up, fragment) | reduce the ability of wild-type MAG-expressing cells to inhibit neurite outgrowth; also recorded: reduce the ability of the wild-type MAG-expressing cells to inhibit neurite outgrowth
M466: peptide of MAG amino acid residues 466-471 (SEQ ID NO: 21) (SGLLLT) | reduce the ability of the wild-type MAG-expressing cells to inhibit neurite outgrowth
M446: peptide of MAG amino acid residues 446-455 (SEQ ID NO: 18) (LPSRNVTVNE) | reduce the ability of the wild-type MAG-expressing cells to inhibit neurite outgrowth
N42: peptide of Nogo-66 amino acid residues 42-47 (EEDEDE; Nogo-66; UniProt Q9NQC3 42-47, looked up, fragment) | reduce the ability of wild-type MAG-expressing cells to inhibit neurite outgrowth; also recorded: reduce the ability of the wild-type MAG-expressing cells to inhibit neurite outgrowth
O231: peptide of OMgp amino acid residues 231-255 (SEQ ID NO: 39) (HKQNITYLLKWVMETKAHVIGTPCS) | reduce the ability of the wild-type MAG-expressing cells to inhibit neurite outgrowth
N48: peptide of Nogo-66 amino acid residues 48-53 (DLEELE; Nogo-66; UniProt Q9NQC3 48-53, looked up, fragment) | reduce the ability of wild-type MAG-expressing cells to inhibit neurite outgrowth; also recorded: reduce the ability of the wild-type MAG-expressing cells to inhibit neurite outgrowth
